For eleven molecules, pest or weed control results are on record in patent US11261177B2, “Benzoxazinone derivatives useful as herbicides” (REDAG CROP PROTECTION LTD, priority 2017, dated 2022).

Type in all cases: in vivo
Assay [1] concerns Stellaria media—Chickweed. The assay can be described thus: Post-emergence herbicidal assay, 96 cell trays, glasshouse. To be noted: 168 h, assessed 7 days after treatment, read-out: % control of plant growth; for pest or weed control at 200 g/ha: 0.2 kg/ha; for pest or weed control at 1000 g/ha: 1 kg/ha; for pest or weed control at 5000 g/ha: 5 kg/ha. The procedure: (§1) The compounds were screened at three concentrations (0.2, 1 and 5 kg/ha) against 2 weed species (Stellaria media—Chickweed and Lolium perenne). The seeds were sown in the cells of 96 cell trays (4-6 seeds per cell). For the pre-emergence assay, 75 μL of a suspension of the test compound, at the above doses, was added on top of the soil 1 day after sowing. For the post-emergence assay, the seedlings were sprayed with 200 μL of a suspension of the test compound two weeks after sowing. The formulation used is 25% acetone and 75% water/0.01% Tween 20. Each treatment was replicated three times. The plants were kept in a glasshouse (uncontrolled conditions) and assessed 7 days after treatment. A small number of compounds were tested in a first trial. A larger number of compounds were tested in a second trial. The assessment was based on the % control of plant growth in each cell.

Assay [2] relates to Lolium perenne. Described as above. As to conditions: 168 h, Lollium, assessed 7 days after treatment, read-out: % control of plant growth; for pest or weed control at 200 g/ha: 0.2 kg/ha; for pest or weed control at 1000 g/ha: 1 kg/ha; for pest or weed control at 5000 g/ha: 5 kg/ha. How it is done: as §1
For assay [3], the system named is Stellaria media—Chickweed. The assay can be described thus: Pre-emergence herbicidal assay, 96 cell trays, glasshouse. As to conditions: 168 h, assessed 7 days after treatment, read-out: % control of plant growth; for pest or weed control at 200 g/ha: 0.2 kg/ha; for pest or weed control at 1000 g/ha: 1 kg/ha; for pest or weed control at 5000 g/ha: 5 kg/ha. How it is done:
as §1

Assay [4] concerns Lolium perenne. The description is as above. To be noted: 168 h, Lollium, assessed 7 days after treatment, read-out: % control of plant growth; for pest or weed control at 200 g/ha: 0.2 kg/ha; for pest or weed control at 1000 g/ha: 1 kg/ha; for pest or weed control at 5000 g/ha: 5 kg/ha. How it is done:
as §1

Each structure is given as a SMILES string. Where only a bound is given, the exact number is not on record here.

`C#CCN1C(=O)C2(CC2)Oc2cc(F)c(-n3c(=O)n(C)c(=S)n(C)c3=O)cc21` [Comparative Example, 3-(7-Fluoro-3-oxo-4-(prop-2-yn-1-yl)-3,4-dihydrospiro[benzo[b][1,4]oxazine-2,1′-cyclopropan]-6-yl)-1,5-dimethyl-6-thioxo-1,3,5-triazinane-2,4-dione, reference compound]: the pest or weed control at 200 g/ha in assay [1] (first trial (Table 1)) is below 20%; in assay [1] (second trial (Table 2)), 20 to 80%; in the assay on Lolium perenne [2] (first trial (Table 1)), 20 to 80%; in the assay with Lolium perenne [2] (second trial (Table 2)) it was 20 to 80%; in assay [3] (first trial (Table 1)) it was below 20%; in assay [3] (second trial (Table 2)) it was 20 to 80%. Besides, the pest or weed control at 200 g/ha in the assay on Lolium perenne [4] (first trial (Table 1)) and in the assay on Lolium perenne [4] (second trial (Table 2)) was below 20% throughout. The pest or weed control at 1000 g/ha was 20 to 80% in assay [1] (first trial (Table 1)); 80 to 100% in assay [1] (second trial (Table 2)); 20 to 80% with Lolium perenne [2] (first trial (Table 1)); 20 to 80% with Lolium perenne [2] (second trial (Table 2)); below 20% in assay [3] (first trial (Table 1)); 80 to 100% in assay [3] (second trial (Table 2)). Also, the pest or weed control at 1000 g/ha with Lolium perenne [4] (first trial (Table 1)) and in the assay with Lolium perenne [4] (second trial (Table 2)) was 20 to 80% in each case. In addition, the pest or weed control at 5000 g/ha in assay [1] (first trial (Table 1)) was 20 to 80%; in assay [1] (second trial (Table 2)), 80 to 100%; with Lolium perenne [2] (first trial (Table 1)), 80 to 100%; in the assay on Lolium perenne [2] (second trial (Table 2)), 80 to 100%; in assay [3] (first trial (Table 1)), below 20%; in assay [3] (second trial (Table 2)) it was 80 to 100%. Besides, the pest or weed control at 5000 g/ha in the assay on Lolium perenne [4] (first trial (Table 1)) and in the assay on Lolium perenne [4] (second trial (Table 2)) was 80 to 100% throughout.
Consider `C#CCN1C(=O)C2(CC2)Oc2cc(F)c(N3C(=O)C4=C(CCCC4)C3=O)cc21` [Example 1, 2-(7-Fluoro-3-oxo-4-(prop-2-yn-1-yl)-3,4-dihydrospiro[benzo[b][1,4]oxazine-2,1′-cyclopropan]-6-yl)-4,5,6,7-tetrahydro-1H-isoindole-1,3(2H)-dione], for which the pest or weed control at 200 g/ha is below 20% in assay [1] (first trial (Table 1)); 80 to 100% in assay [1] (second trial (Table 2)); below 20% with Lolium perenne [2] (first trial (Table 1)); 20 to 80% with Lolium perenne [2] (second trial (Table 2)); below 20% in assay [3] (first trial (Table 1)); 20 to 80% in assay [3] (second trial (Table 2)). The pest or weed control at 200 g/ha with Lolium perenne [4] (first trial (Table 1)) and in the assay on Lolium perenne [4] (second trial (Table 2)) was 20 to 80% throughout. The pest or weed control at 1000 g/ha in assay [1] (first trial (Table 1)) was 20 to 80%; in assay [1] (second trial (Table 2)) it was 80 to 100%; in the assay on Lolium perenne [2] (first trial (Table 1)), 20 to 80%; with Lolium perenne [2] (second trial (Table 2)) it was 80 to 100%; in assay [3] (first trial (Table 1)) it was below 20%; in assay [3] (second trial (Table 2)), 80 to 100%. Besides, the pest or weed control at 1000 g/ha with Lolium perenne [4] (first trial (Table 1)) and with Lolium perenne [4] (second trial (Table 2)) was 20 to 80% throughout. Moreover, the pest or weed control at 5000 g/ha was 20 to 80% in assay [1] (first trial (Table 1)); 80 to 100% in assay [1] (second trial (Table 2)); 80 to 100% in the assay with Lolium perenne [2] (first trial (Table 1)); 80 to 100% with Lolium perenne [2] (second trial (Table 2)); below 20% in assay [3] (first trial (Table 1)); 80 to 100% in assay [3] (second trial (Table 2)). Further, the pest or weed control at 5000 g/ha in the assay on Lolium perenne [4] (first trial (Table 1)) lay in the range of 20 to 80%; in the assay with Lolium perenne [4] (second trial (Table 2)), 80 to 100%.
Turning to `O=C1N(CC2CC2)c2cc(/N=c3\sc(=O)n4n3CCCC4)c(F)cc2OC12CC2` [Example 37], in assay [1] (second trial (Table 2)), the pest or weed control at 200 g/ha fell in the range of 80 to 100%, the pest or weed control at 1000 g/ha was in the range of 80 to 100% and the pest or weed control at 5000 g/ha fell in the range of 80 to 100%. Also, in the assay with Lolium perenne [2] (second trial (Table 2)), the pest or weed control at 200 g/ha was 20 to 80%, the pest or weed control at 1000 g/ha lay in the range of 20 to 80% and the pest or weed control at 5000 g/ha lay in the range of 80 to 100%.
For the molecule `COC(=O)C(C)N1C(=O)C2(CC2)Oc2cc(F)c(/N=c3\sc(=O)n4n3CCCC4)cc21` (stereo not drawn) [Example 38], in assay [1] (second trial (Table 2)), the pest or weed control at 200 g/ha lay in the range of 80 to 100%, the pest or weed control at 1000 g/ha is 80 to 100% and the pest or weed control at 5000 g/ha was in the range of 80 to 100%. For the same molecule, in the assay on Lolium perenne [2] (second trial (Table 2)), the pest or weed control at 200 g/ha was in the range of 20 to 80%, the pest or weed control at 1000 g/ha lay in the range of 20 to 80% and the pest or weed control at 5000 g/ha is 80 to 100%.
In the case of `C#CCN1C(=O)C2(CC2)Oc2cc(F)c(N3C(=O)C4COCCN4C3=O)cc21` (stereo not drawn) [Example 45, 2-(7-Fluoro-3-oxo-4-(prop-2-yn-1-yl)-3,4-dihydrospiro[benzo[b][1,4]oxazine-2,1′-cyclopropan]-6-yl)tetrahydro-1H-imidazo[5,1-c][1,4]oxazine-1,3(2H)-dione], in assay [1] (second trial (Table 2)), the pest or weed control at 200 g/ha lay in the range of 80 to 100%, the pest or weed control at 1000 g/ha was 80 to 100% and the pest or weed control at 5000 g/ha was 80 to 100%. In addition, in the assay with Lolium perenne [2] (second trial (Table 2)), the pest or weed control at 200 g/ha was 80 to 100%, the pest or weed control at 1000 g/ha lay in the range of 80 to 100% and the pest or weed control at 5000 g/ha lay in the range of 80 to 100%.
Take `O=C1C2CC(O)CN2C(=O)N1c1cc2c(cc1F)OC1(CC1)C(=O)N2CC1CC1` (stereo not drawn) [Example 46]: in assay [1] (second trial (Table 2)), the pest or weed control at 200 g/ha is below 20%, the pest or weed control at 1000 g/ha is below 20% and the pest or weed control at 5000 g/ha is below 20%. In addition, in the assay with Lolium perenne [2] (second trial (Table 2)), the pest or weed control at 200 g/ha was below 20%, the pest or weed control at 1000 g/ha is below 20% and the pest or weed control at 5000 g/ha was below 20%.
With `O=C1C2COCCN2C(=O)N1c1cc2c(cc1F)OC1(CC1)C(=O)N2CC1CC1` (stereo not drawn) [Example 48], in assay [1] (second trial (Table 2)), the pest or weed control at 200 g/ha was in the range of 80 to 100%, the pest or weed control at 1000 g/ha is 80 to 100% and the pest or weed control at 5000 g/ha lay in the range of 80 to 100%. In addition, in the assay on Lolium perenne [2] (second trial (Table 2)), the pest or weed control at 200 g/ha was below 20%, the pest or weed control at 1000 g/ha was below 20% and the pest or weed control at 5000 g/ha was in the range of 20 to 80%.
As to `COC(=O)C(C)N1C(=O)C2(CC2)Oc2cc(F)c(N3C(=O)C4COCCN4C3=O)cc21` (stereo not drawn) [Example 49], in assay [1] (second trial (Table 2)), the pest or weed control at 200 g/ha is 80 to 100%, the pest or weed control at 1000 g/ha was 80 to 100% and the pest or weed control at 5000 g/ha is 80 to 100%. Moreover, in the assay on Lolium perenne [2] (second trial (Table 2)), the pest or weed control at 200 g/ha is below 20%, the pest or weed control at 1000 g/ha is below 20% and the pest or weed control at 5000 g/ha was below 20%.
For the molecule `N#CCN1C(=O)C2(CC2)Oc2cc(F)c(N3C(=O)C4COCCN4C3=O)cc21` (stereo not drawn) [Example 50], in assay [1] (second trial (Table 2)), the pest or weed control at 200 g/ha fell in the range of 80 to 100%, the pest or weed control at 1000 g/ha lay in the range of 80 to 100% and the pest or weed control at 5000 g/ha was in the range of 80 to 100%. In the assay on Lolium perenne [2] (second trial (Table 2)), the pest or weed control at 200 g/ha was below 20%, the pest or weed control at 1000 g/ha is below 20% and the pest or weed control at 5000 g/ha was below 20%.
As for `CC(C)=CCN1C(=O)C2(CC2)Oc2cc(F)c(N3C(=O)C4COCCN4C3=O)cc21` (stereo not drawn) [Example 51], in assay [1] (second trial (Table 2)), the pest or weed control at 200 g/ha was in the range of 80 to 100%, the pest or weed control at 1000 g/ha lay within 80 to 100% and the pest or weed control at 5000 g/ha was in the range of 80 to 100%. In the assay with Lolium perenne [2] (second trial (Table 2)), the pest or weed control at 200 g/ha was below 20%, the pest or weed control at 1000 g/ha was below 20% and the pest or weed control at 5000 g/ha was below 20%.
Turning to `O=C1C2CCCN2C(=O)N1c1cc2c(cc1F)OC1(CC1)C(=O)N2CC1CC1` (stereo not drawn) [Example 52], in assay [1] (second trial (Table 2)), the pest or weed control at 200 g/ha fell in the range of 80 to 100%, the pest or weed control at 1000 g/ha lay in the range of 80 to 100% and the pest or weed control at 5000 g/ha fell in the range of 80 to 100%. Moreover, in the assay with Lolium perenne [2] (second trial (Table 2)), the pest or weed control at 200 g/ha is below 20%, the pest or weed control at 1000 g/ha lay in the range of 20 to 80% and the pest or weed control at 5000 g/ha lay within 20 to 80%.
